Test results reported in patent US20040087629A1, “Tartrate salts of thiazolidinedione derivative” (priority 2003, published 2004).
Like-named read-outs stand apart in the source and are kept apart here.

Settings: 1 month, product of Example 4

HPLC assay (final content) (40° C./75% Relative Humidity (RH), open exposure): 97 % initial
HPLC assay (final content) (50° C., closed): 98 % initial
SMILES: CN(CCOc1ccc(CC2SC(=O)NC2=O)cc1)c1ccccn1.O=C(O)C(O)C(O)C(=O)O [L(+) Tartrate, 5-[4-[2-(N-methyl-N-(2-pyridyl)amino)ethoxy]benzyl]thiazolidine-2,4-dione L-(+)-tartrate]
